“And” between values parts separate entries of the source, which are not always exact repeats. Equal entries are not always repeated.
Legend:
Assay type in all cases: binding, calf
[1] = test system: AP-DNA; assay: FARP AP-site assay: screening of MX-like compounds in competition with FARP
Experimental: (§1) 100 μL of 5 μM FARP in phosphate buffer (10 mM, pH 7.0) was added to 200 μL phosphate buffer (10 mM, pH 7.0) containing 10 μg of DNA extracted from cells, individual AP-DNA standard (10, 20, 40, 80, 160, 320, and 640 nM AP), and blank AP-DNA control, respectively. After vortexing, the reaction was allowed to proceed at room temperature for 15 min. At the end of the reaction 200 μL ammonium acetate (7.5M) and 1000 μL ice-cold ethanol (100%) were added. The solution was mixed gently by inverting the tube before keeping it at −20° C. for 30 min. Each tube was centrifuged at 4° C. and 12,000 g for 10 min. The supernatant was poured out carefully so that no loss of FARP-AP-DNA took place. 1200 μL of ice-cold ethanol (70%) was added to each tube to remove the free FARP by centrifugation at 4° C. and 12,000 g for 10 min. This washing step with 70% ice-cold ethanol was repeated two more times. After discarding the supernatant, the FARP-AP-DNA precipitate in the tube was dried at room temperature for 30 min. in a venting hood. The FARP-AP-DNA precipitate was hydrated and resuspended in 200 μL of phosphate buffer (10 mM, pH 9.0) at room temperature for 1 hr. The fluorescence intensity of the resultant FARP-AP-DNA solution was measured by the FluoroMax-2 spectrofluorometer. A calibration curve could be constructed by plotting the fluorescence intensity versus the concentration of AP sites.
One important application of the FARP AP-site assay developed is to screen MX-like compounds for their reactivity to AP site based on known chemical structures. In this work, four compounds with aminooxy or hydrazone group (i.e., MXL1O1, MXLIO2, MXLI 03, and MXL 104) together with MX were tested. The detail experiment included mixing equal concentration and volume of each individual test compound with FARP (50 μM in 100 μL of 10 mM phosphate buffer at pH 7.0) before reacting with 200 µL of 100 nM AP-DNA. The remaining experimental procedures were the same as described in the Experimental section. The data of fluorescence intensity reduced by MX and MX-like compounds were given in Table XI and the fluorescence intensity of the test compounds were compared in FIG. 19.

[2] = test system: AP-DNA; assay: Competitive reactions between FARP and MX with AP-DNA; conditions: for Fluorescence Intensity/10^4: 125 nM AP-DNA
Experimental: as §1
Since aminooxy and hydrazone nucleophiles can react with aldehyde group of AP site and form condensation product, it is desirable to know when MX and FARP compete with AP-DNA, which compound has greater reactivity toward AP-DNA. The finding of this experiment will lay the foundation of a screening assay for MX-like compounds.
In the study, the amount of AP-DNA used were 125 nM in 200 μL of 10 mM phosphate buffer at pH 7.0 and the ratios of [FARP]/[MX] were as follows: 50 μM FARP/0 μM, 50.0 μM/5 μM, 50.0 μM/12.5 μM, 50.0 μM/16.7 μM, 50.0 μM/25.0 μM 50.0 μM/22.7 μM, 50.0 μM/25 μM, 50.0 μM/50.0 μM, 50.0 μM/100.0 μM, 50.0 μM/200.0 μM, 50.0 μM/500.0 μM in 100 μL of 10 mM phosphate buffer at pH 7.0. Because MX and FARP were competing for a limited amount of AP-DNA, and only FARP-AP-DNA was fluorescent, the reduced fluorescence intensity reflected the amount of MX binding to the AP sites. […] This is probably due to the molecular size of MX, which allows it to diffuse to faster to the AP-DNA than FARP molecule in aqueous solution.

[3] = test system: AP-DNA; assay: Reversibility study of the condensation reaction between FARP / MX and AP-DNA; conditions: for Fluorescence Intensity, FARP Reaction Followed MX Reaction: FARP-AP-DNA incubated with 50 μM MX; for Fluorescence Intensity, MX Replacement Followed by FARP Replacement: MX-AP-DNA incubated with 50 μM FARP
Experimental: It was known that the aldehyde group of an AP site could easily condense with aminooxy or hydrazone nucleophiles. However, the reversibility of the reaction was not clear, especially in the presence of another competing nucleophile. To clarify the above, two experiments were designed and carried out as follows: (a) FARP (50 μM in 100 μL of 10 mM phosphate buffer at pH 7.0) reacted with AP-DNA (125 nM in 200 μL of 10 mM phosphate buffer at pH 7.0) for 1 hr, after washing the condensation product (FARP-AP-DNA) incubated with MX (50 μM in 100 μL of 10 mM phosphate buffer at pH 7.0) for various time periods; and (b) MX (50 μM in 100 μL of 10 mM phosphate buffer at pH 7.0) reacted with AP-DNA (125 nM, 200 μL) for 1 hr, after washing the condensation product (MX-AP-DNA) incubated with FARP (50 μM in 100 μL of 10 mM phosphate buffer at pH 7.0) for various time periods.

[4] = test system: AP-DNA; assay: Competitive reactions between FARP and MX with AP-DNA; conditions: [FARP]/[MX] 50.0 μM/20.0 μM, 125 nM AP-DNA
[5] = test compound mixed with FARP at equal concentration and volume (50 μM in 100 μL, pH 7.0), 100 nM AP-DNA

Compound: CON [MX, methoxyamine]
- Normalized Fluorescence Intensity % ([1]; relative to FARP alone = 100, equal concentration of test compound and FARP, 100 nM AP-DNA): 37.3%
- reactivity toward AP-DNA compared with FARP ([1]; result in words): higher reactivity than FARP
- Fluorescence Intensity Individual Measurement [1, 5]: 6543.0 and 6137.0
- Fluorescence Intensity Mean [1, 5]: 6340.0
- Fluorescence Intensity/10^4 ([2]; [FARP]/[MX] 50.0 μM/5.0 μM): 8.9453
- Fluorescence Intensity/10^4 ([2]; [FARP]/[MX] 50.0 μM/12.5 μM): 8.3567
- Fluorescence Intensity/10^4 ([2]; [FARP]/[MX] 50.0 μM/16.7 μM): 7.6453
- Fluorescence Intensity/10^4 ([2]; [FARP]/[MX] 50.0 μM/22.7 μM): 3.8976
- Fluorescence Intensity/10^4 ([2]; [FARP]/[MX] 50.0 μM/25.0 μM): 3.2452
- Fluorescence Intensity/10^4 ([2]; [FARP]/[MX] 50.0 μM/50.0 μM): 2.587
- Fluorescence Intensity/10^4 ([2]; [FARP]/[MX] 50.0 μM/100.0 μM): 2.348
- Fluorescence Intensity/10^4 ([2]; [FARP]/[MX] 50.0 μM/200.0 μM): 2.2876
- Fluorescence Intensity/10^4 ([2]; [FARP]/[MX] 50.0 μM/500.0 μM): 2.0896
- affinity toward AP-DNA compared with FARP ([2]; result in words): greater affinity toward APDNA than that of FARP
- Fluorescence Intensity, FARP Reaction Followed MX Reaction ([3]; replacement time 10 min): 11,003
- Fluorescence Intensity, FARP Reaction Followed MX Reaction ([3]; replacement time 20 min): 11,289
- Fluorescence Intensity, FARP Reaction Followed MX Reaction ([3]; replacement time 30 min): 10,759
- Fluorescence Intensity, FARP Reaction Followed MX Reaction ([3]; replacement time 40 min): 11,193
- Fluorescence Intensity, FARP Reaction Followed MX Reaction ([3]; replacement time 50 min): 11,226
- Fluorescence Intensity, FARP Reaction Followed MX Reaction ([3]; replacement time 60 min): 11,139
- Fluorescence Intensity, FARP Reaction Followed MX Reaction ([3]; replacement time 90 min): 11,112
- Fluorescence Intensity, FARP Reaction Followed MX Reaction ([3]; replacement time 120 min): 11,145
- Fluorescence Intensity, MX Replacement Followed by FARP Replacement ([3]; replacement time 10 min): 3,366
- Fluorescence Intensity, MX Replacement Followed by FARP Replacement ([3]; replacement time 20 min): 3,225
- Fluorescence Intensity, MX Replacement Followed by FARP Replacement ([3]; replacement time 30 min): 3,557
- Fluorescence Intensity, MX Replacement Followed by FARP Replacement ([3]; replacement time 40 min): 3,410
- Fluorescence Intensity, MX Replacement Followed by FARP Replacement ([3]; replacement time 50 min): 3,321
- Fluorescence Intensity, MX Replacement Followed by FARP Replacement ([3]; replacement time 60 min): 3,192
- Fluorescence Intensity, MX Replacement Followed by FARP Replacement ([3]; replacement time 90 min): 3,202
- Fluorescence Intensity, MX Replacement Followed by FARP Replacement ([3]; replacement time 120 min): 3,081
- reversibility of the condensation reaction with aldehyde group of AP-DNA ([3]; result in words, under the assay conditions): irreversible
- Fluorescence Intensity/10^4 [4]: 5.6423

Source: US20090298077A1, “ASSAY FOR MEASUREMENT OF APURINIC/APYRIMIDINIC (AP) SITES AND FOR SCREENING AP-SITE REACTIVE COMPOUNDS” (priority 2006, published 2009)
